Square brackets hold non-standard residues; d marks the D form. Peptide text beside a SMILES is read from it. Bip = N[C@@H](Cc1ccc(-c2ccccc2)cc1)C(=O)O; Phe(4-CN) = N#Cc1ccc(C[C@H](N)C(=O)O)cc1; Phe(4-F) = N[C@@H](Cc1ccc(F)cc1)C(=O)O; Dmt = Cc1cc(O)cc(C)c1C[C@H](N)C(=O)O; hPhe = N[C@@H](CCc1ccccc1)C(=O)O; dTic = O=C(O)[C@H]1Cc2ccccc2CN1; β3hF = N[C@H](CC(=O)O)Cc1ccccc1; Nle = CCCC[C@H](N)C(=O)O; dNMeA = CN[C@H](C)C(=O)O; Sar = CNCC(=O)O
Experiments:
δ-opioid receptor (DOR) = target: T1, δ-opioid receptor (DOR) (Homo sapiens, UniProt P41143); experiment: DOR agonist cAMP assay (HitHunter cAMP, forskolin-stimulated); format: cell-based
T1 construct: host or cells: cAMP Hunter CHO-K1 OPRD1 Gαi cell line
Experimental: (§1) The HitHunter® cAMP chemiluminescent assay kit (DiscoveRx, Cat# 90-0075 SM25) was used to detect cAMP production in cAMP Hunter™ Gαi cell lines over expressing either Human-ORPM1 (Discoverx, Catalog# 95-0107C2) or Human-ORPD1 (DiscoveRx, Catalog# 95-0108C2). Opioid agonist binding to the Gαi receptors inhibits the intracellular cAMP accumulation induced by forskolin, which activates adenylate cyclase and increases intracellular levels of cAMP.
(§2) Cells were cultured in media consisting of Ham's F-12 Nutrient Mix (Life Technologies, Catalog#31765035), 10% FBS (Life Technologies, Catalog# 16140-071), 4 mM GlutaMAX (Life Technologies, Catalog#35050-061), […] (Life Technologies), 100 ug/ml of Penn-Strep (Life Technologies) and 0.5 mg/ml Geneticin (Life Technologies, Catalog# 10131-027). The cultures were maintained at 37° C. under 5% CO2.
(§3) In preparation for cAMP assay, the cells were seeded at a density of 300,000 cells/ml in 100 ul of media/well in 96-well microplate. Wells that were designated for cAMP standards were left empty.
(§4) Opioid agonist serial dilutions were prepared in separate dilution plate (11-point series of 3× (3-fold) dilution) in Cell Assay buffer, including 3× forskolin for Gαi target. For Hunter CHO-K1 OPRM1 or CHO-K1 OPRD1 Gαi Cell Lines, the final forskolin concentration was 20 uM.
(§5) 15 ul of each 3× opioid agonist serial dilution was added in the presence of forskolin in duplicate to the designated wells. The final concentration of each dilution was at 3× of the final screening concentration. The assay plate was incubated for 30 min, at 37° C. under 5% CO2.
(§6) Cellular cAMP concentrations were measured using the HitHunter cAMP Assay kit following the manufacturer's protocol. HitHunter cAMP assay is a gain-of-signal competitive immunoassay based on Enzyme Fragment Complementation (EFC) technology. The kit uses β-galactosidase (β-gal) enzyme split into Enzyme Donor (ED) and Enzyme Acceptor (EA). The cellular cAMP and ED-labelled cAMP compete for anti-cAMP antibody. […] When cellular cAMP level is high, it competes for the anti-cAMP antibody, thereby releasing ED-cAMP to complement with EA to produce a luminescent signal. The amount of signal is directly proportional to the amount of cAMP in cells and can be quantified using cAMP standards. The assay plates were read using a PerkinElmer Envision instrument to detect the chemiluminescence signal in each well (luminescence reader at 0.1 to 1 second/well). Data analysis was performed using Graphpad Prism 7.EC50 was calculated by nonlinear regression, using the four-parameter hill equation.

μ-opioid receptor (MOR) = target: T2, μ-opioid receptor (MOR) (Homo sapiens, UniProt P35372); experiment: MOR agonist cAMP assay (HitHunter cAMP, forskolin-stimulated); format: cell-based
T2 construct: host or cells: cAMP Hunter CHO-K1 OPRM1 Gαi cell line
Experimental: as §1, §2, §3, §4, §5, §6

T1 sequence (P41143 whole entry): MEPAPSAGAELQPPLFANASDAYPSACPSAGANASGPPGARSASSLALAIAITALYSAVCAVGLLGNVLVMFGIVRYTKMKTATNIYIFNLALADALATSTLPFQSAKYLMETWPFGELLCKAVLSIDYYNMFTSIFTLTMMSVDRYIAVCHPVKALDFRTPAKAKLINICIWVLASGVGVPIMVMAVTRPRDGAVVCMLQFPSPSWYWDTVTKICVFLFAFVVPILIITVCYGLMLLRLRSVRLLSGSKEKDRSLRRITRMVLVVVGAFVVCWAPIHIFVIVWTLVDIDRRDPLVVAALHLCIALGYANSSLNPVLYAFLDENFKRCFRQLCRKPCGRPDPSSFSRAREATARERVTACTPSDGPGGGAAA
T2 sequence (P35372 whole entry): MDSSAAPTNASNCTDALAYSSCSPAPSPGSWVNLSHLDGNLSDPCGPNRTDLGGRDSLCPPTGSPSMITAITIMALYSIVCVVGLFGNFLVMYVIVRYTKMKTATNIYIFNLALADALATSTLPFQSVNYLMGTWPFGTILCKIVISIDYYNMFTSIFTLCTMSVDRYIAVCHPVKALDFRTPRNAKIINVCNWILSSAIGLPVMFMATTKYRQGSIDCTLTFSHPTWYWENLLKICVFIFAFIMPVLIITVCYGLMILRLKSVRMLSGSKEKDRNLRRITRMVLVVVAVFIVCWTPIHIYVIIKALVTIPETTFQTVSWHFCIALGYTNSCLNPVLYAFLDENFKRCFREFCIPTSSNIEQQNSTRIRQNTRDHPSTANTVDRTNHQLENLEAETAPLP

SMILES	EC50 (δ-opioid receptor (DOR)) [nM]	EC50 (μ-opioid receptor (MOR)) [nM]
Cc1cc(O)cc(C)c1C[C@H](N)C(=O)N[C@H](CCCNC(=N)N)C(=O)N[C@@H](Cc1ccc(-c2ccccc2)cc1)C(=O)N[C@@H](CCCCN)C(N)=O [compound 3] (H-[Dmt][dR][Bip]K-NH2)	> 200	50 to 200
Cc1cc(O)cc(C)c1C[C@H](N)C(=O)N[C@H](CCCNC(=N)N)C(=O)N[C@@H](Cc1c[nH]cn1)C(=O)N[C@@H](CCCCN)C(N)=O [compound 4] (H-[Dmt][dR]HK-NH2)	> 200	10 to 50
Cc1cc(O)cc(C)c1C[C@H](N)C(=O)N[C@H](CCCNC(=N)N)C(=O)N[C@@H](Cc1ccccc1)C(=O)N(C)[C@@H](CCCCN)C(N)=O [compound 5]	> 200	< 1
Cc1cc(O)cc(C)c1C[C@H](N)C(=O)N[C@H](CCCNC(=N)N)C(=O)N[C@@H](Cc1ccccc1)C(=O)N(C)CC(N)=O [compound 9] (H-[Dmt][dR]F[Sar]-NH2)	1 to 10	< 1
Cc1cc(O)cc(C)c1C[C@H](N)C(=O)N(C)[C@H](C)C(=O)N[C@@H](Cc1ccccc1)C(=O)N(C)CC(N)=O [compound 10] (H-[Dmt][dNMeA]F[Sar]-NH2)	1 to 10	< 1
Cc1cc(O)cc(C)c1C[C@H](N)C(=O)N[C@H](CCCNC(=N)N)C(=O)N[C@@H](CCc1ccccc1)C(=O)N(C)CCC(=O)O [compound 12]	< 1	< 1
Cc1cc(O)cc(C)c1C[C@H](N)C(=O)N[C@H](CCCNC(=N)N)C(=O)N[C@@H](Cc1ccc(F)cc1)C(=O)N(C)CC(N)=O [compound 19] (H-[Dmt][dR][Phe(4-F)][Sar]-NH2)	1 to 10	< 1
Cc1cc(O)cc(C)c1C[C@H](N)C(=O)N[C@H](CCCNC(=N)N)C(=O)N[C@@H](Cc1ccc(C#N)cc1)C(=O)N(C)CC(N)=O [compound 20] (H-[Dmt][dR][Phe(4-CN)][Sar]-NH2)	< 1	1 to 10
Cc1cc(O)cc(C)c1C[C@H](N)C(=O)N1Cc2ccccc2C[C@@H]1C(=O)N[C@@H](Cc1ccccc1)C(=O)N(C)CC(N)=O [compound 44] (H-[Dmt][dTic]F[Sar]-NH2)	1 to 10	< 1
Cc1cc(O)cc(C)c1C[C@H](N)C(=O)N1Cc2ccccc2C[C@@H]1C(=O)NCC(=O)N[C@@H](Cc1ccccc1)C(=O)N(C)CC(N)=O [compound 45] (H-[Dmt][dTic]GF[Sar]-NH2)	< 1	< 1
Cc1cc(O)cc(C)c1C[C@H](N)C(=O)N[C@H](C)C(=O)N[C@@H](CCc1ccccc1)C(=O)N(C)CC(N)=O [compound 46] (H-[Dmt][dA][hPhe][Sar]-NH2)	< 1	< 1
CCCC[C@H](NC(=O)[C@H](CCc1ccccc1)NC(=O)[C@@H](C)NC(=O)[C@@H](N)Cc1c(C)cc(O)cc1C)C(N)=O [compound 48] (H-[Dmt][dA][hPhe][Nle]-NH2)	< 1	< 1
CCCC[C@H](NC(=O)[C@H](CCc1ccccc1)NC(=O)CNC(=O)[C@@H](C)NC(=O)[C@@H](N)Cc1c(C)cc(O)cc1C)C(N)=O [compound 49]		< 1
CC(=O)Nc1ccc(C[C@H](N)C(=O)N[C@H](C)C(=O)NCC(=O)N[C@H](CC(=O)N(C)CC(N)=O)Cc2ccccc2)cc1 [compound 59]	50 to 200	10 to 50
C[C@@H](NC(=O)[C@@H](N)Cc1ccc(C(N)=O)cc1)C(=O)NCC(=O)N[C@H](CC(=O)N(C)CC(N)=O)Cc1ccccc1 [compound 60]	1 to 10	1 to 10
C[C@@H](NC(=O)[C@@H](N)Cc1c[nH]c2ccc(O)cc12)C(=O)NCC(=O)N[C@H](CC(=O)N(C)CC(N)=O)Cc1ccccc1 [compound 63]	50 to 200	50 to 200
Cc1cc(O)cc(C)c1C[C@H](N)C(=O)N[C@H](C)C(=O)N[C@@H](CC(C)C)C(=O)N[C@H](CC(=O)N(C)CC(N)=O)Cc1ccccc1 [compound 67] (H-[Dmt][dA]L[β3hF][Sar]-NH2)	10 to 50	< 1
CC[C@H](C)[C@H](NC(=O)[C@@H](C)NC(=O)[C@@H](N)Cc1c(C)cc(O)cc1C)C(=O)N[C@H](CC(=O)N(C)CC(N)=O)Cc1ccccc1 [compound 68] (H-[Dmt][dA]I[β3hF][Sar]-NH2)	10 to 50	< 1

Source: US10278957B2, “Opioid agonist peptides and uses thereof” (Protagonist Therapeutics, Inc., priority 2017, dated 2019)
